Literature values as cited in patent US20250255825A1, “POLYMER-LIPID NANOCOMPLEX FOR ENHANCED AQUEOUS SOLUBILISATION AND ABSORPTION OF HYDROPHOBIC ACTIVE COMPOUNDS” (priority 2019, published 2025).
Like-named read-outs stand apart in the source and are kept apart here.

Tests used:
[1] = test system: malaria parasitaemia in the blood; details: reported value for un-formulated LUM
[2] = not given; remark: listed apart in the source
[3] = partition coefficient octanol/water

Structure (SMILES) | bioavailability (inhalation) | bioavailability (orally) | effective dose (ED90) to clear 90% of parasitaemia in the blood [1] [mg/kg] | half-life (T½) ([2]; in vivo) [h] | highest concentration (Cmax) in the blood ([2]; orally administered) [µg/mL] | time to reach the highest concentration (Tmax) ([2]; orally administered) | protein bound (plasma proteins) [%] | Log P [3]
C=C(C)[C@@H]1CCC(C)=C[C@H]1c1c(O)cc(CCCCC)cc1O [Cannabidiol] | 11-45% | 13-19% |  |  |  |  |  | 
CCCCN(CCCC)CC(O)c1cc(Cl)cc2c1-c1ccc(Cl)cc1/C2=C/c1ccc(Cl)cc1 (racemic) [Lumefantrine] |  |  | 12.01 | 96 to 120 | 7 | about 6 hours | 99.7 | 9
